Measured values: ChEMBL document CHEMBL5113549, “Binding versus Enzymatic Processing of ε-Trimethyllysine Dioxygenase Substrate Analogues” (ACS Med Chem Lett, 2022)
The source made the active and inactive calls. The rule behind the calls is not given here.

Experiments:
Homo sapiens [1] = species: Homo sapiens; test: Substrate activity at human recombinant MBP-TMLD (42 to 421 residues) fusion protein expressed in Escherichia coli BL21-AI assessed as ratio of succinate to hydroxylated substrate formation at 500 uM in presence of alpha-ketoglutarate by proton 1D NMR spectroscopy
[2] = Binding affinity to human recombinant MBP-TMLD (42 to 421 residues) fusion protein expressed in Escherichia coli BL21-AI by isothermal titration calorimetry
Homo sapiens [3] = species: Homo sapiens; test: Binding affinity to human recombinant MBP-TMLD (42 to 421 residues) fusion protein expressed in Escherichia coli BL21-AI assessed as change in Gibbs free energy by isothermal titration calorimetry
Homo sapiens [4] = species: Homo sapiens; test: Binding affinity to human recombinant MBP-TMLD (42 to 421 residues) fusion protein expressed in Escherichia coli BL21-AI assessed as change in entropy by isothermal titration calorimetry
Homo sapiens [5] = species: Homo sapiens; test: Substrate activity at human recombinant MBP-TMLD (42 to 421 residues) fusion protein expressed in Escherichia coli BL21-AI assessed as hydroxylated substrate formation at 500 uM in presence of alpha-ketoglutarate by proton 1D NMR spectroscopy
Homo sapiens [6] = species: Homo sapiens; test: Binding affinity to human recombinant MBP-TMLD (42 to 421 residues) fusion protein expressed in Escherichia coli BL21-AI assessed as change in enthalpy by isothermal titration calorimetry
Homo sapiens [7] = species: Homo sapiens; test: Binding affinity to human recombinant MBP-TMLD (42 to 421 residues) fusion protein expressed in Escherichia coli BL21-AI assessed as heat release at 300 uM in presence of co-factor OGA and Co2+ by isothermal titration calorimetry
Homo sapiens [8] = species: Homo sapiens; test: Binding affinity to human recombinant MBP-TMLD (42 to 421 residues) fusion protein expressed in Escherichia coli BL21-AI assessed as heat release at 300 uM in presence of co-factor alpha-ketoglutarate and Zn2+ by isothermal titration calorimetry
Homo sapiens [9] = species: Homo sapiens; test: Binding affinity to human recombinant MBP-TMLD (42 to 421 residues) fusion protein expressed in Escherichia coli BL21-AI assessed as heat release at 300 uM in presence of co-factor OGA and Zn2+ by isothermal titration calorimetry
Homo sapiens [10] = species: Homo sapiens; test: Binding affinity to human recombinant MBP-TMLD (42 to 421 residues) fusion protein expressed in Escherichia coli BL21-AI in presence of 1.18 to 2 fold excess of co-factor Zn2+/OGA by isothermal titration calorimetry

Ratio (Homo sapiens [1]) | deltaG (Homo sapiens [3]) | -TdeltaS (Homo sapiens [4]) | Activity (Homo sapiens [5]) | deltaH (Homo sapiens [6]) | Activity (Homo sapiens [7]) | Activity (Homo sapiens [8]) | Activity (Homo sapiens [9]) | Activity (Homo sapiens [10]) | Structure (SMILES) | Kd [2]
2.4 | -6.52 kcal/mol | -5.9 kcal/mol | 39% | -0.6 kcal/mol |  |  |  |  | CCCC[N+](C)(C)CCCC[C@H](N)C(=O)[O-] | 16.4 µM
1.3 | -7.15 kcal/mol | -1.66 kcal/mol | 97% | -5.48 kcal/mol | Active | Active | Active | Active | C[N+](C)(C)CCCC[C@H](N)C(=O)O | 5.78 µM
2.9 | -6.28 kcal/mol | -4.9 kcal/mol | 30% | -1.4 kcal/mol |  |  |  |  | C[N+](C)(C)CCCCC[C@H](N)C(=O)O | 25 µM
2.4 | -6.75 kcal/mol | -1.2 kcal/mol | 51% | -5.6 kcal/mol |  |  |  |  | CC(C)[N+](C)(C)CCCC[C@H](N)C(=O)O | 11.3 µM
2.1 | -7.12 kcal/mol | -0.75 kcal/mol | 83% | -6.37 kcal/mol |  |  |  |  | CC[N+](C)(C)CCCC[C@H](N)C(=O)O | 6 µM
3.9 |  |  | 12% |  |  |  |  |  | CC(C)C(=O)N[C@@H](CCCC[N+](C)(C)C)C(=O)[O-] | 
3.1 | -6.9 kcal/mol | -2.5 kcal/mol | 28% | -4.5 kcal/mol |  |  |  |  | C[N+](C)(C)CCC[C@H](N)C(=O)O | 7.6 µM
3.4 | -6.9 kcal/mol | -5.5 kcal/mol | 25% | -1.4 kcal/mol |  |  |  |  | CCC[N+](C)(C)CCCC[C@H](N)C(=O)O | 9.2 µM
